Data: patent publication US20150038674A1, “USE OF GLP-2 ANALOGUES IN PULMONARY DISEASES FOR THERAPEUTIC PURPOSE” (priority 2013, published 2015)
Marks after values point to notes of the source that are not given here. Starred links: 1 amine or outer side, 2 acyl side, 3 side chain; linkers in the order of their positions; H or OH if unused. Positions of bridges follow the written chain, without caps; N, C: chain ends. Non-standard residues stand in square brackets, D forms with d. Residues, ends and D or L forms follow the SMILES beside them. Chains are numbered I, II in the order given. Actinocin(9to1) = Cc1c2oc3c(C)ccc(C(=O)[*:1])c3nc-2c(C(=O)[*:2])c(N)c1=O; NMeV = CN[C@H](C(=O)O)C(C)C; Sar = CNCC(=O)O

Key:
[1] = tested on: alveolar wall of mice lung; assay: Hematoxylin-eosin histology of lung sections (alveolar wall damage); assay type: in vivo, mouse; conditions: HE-stained lung sections, male BALB/c mice; same dosing groups
Experimental: TNF-alpha and/or Act D was administered to mice in the experiments. Act D is used in order to increase the cytotoxic effect of TNF-alpha in lung tissues. In this way, pulmonary epithelial, endothelial and mesenchymal cells were damaged in mouse lung by stimulating apoptosis, inflammation and oxidative stress. TNF-alpha. Act D and especially the combination of TNF-alpha/Act D cause the damage in alveolar wall of mice lung; it reduces the tissue factor (TF) and sodium-potassium ATPase (Na-K-ATPase) activities while stimulating apoptosis in pulmonary endotheliaL % epithelial cells, myeloperoxidase (MPO) activity in tissue and oxidative stress.
(§1) In this study, 8-10 months male BALB/c mice were used. […]

[2] = tested on: apoptotic cells in the lung (alveolar areas); assay: TUNEL apoptotic index in alveolar area of lung; assay type: in vivo, mouse; conditions: male BALB/c mice, teduglutide 200 μg/kg s.c. every 12 hours for 10 days, TNF-alpha 15 μg/kg i.p., Act D 800 μg/kg i.p.
Experimental: (§2) In this study, 8-10 months male BALB/c mice were used. Mice were divided into 6 groups: • Group I (Control group): Mice injected with 0.1% dimethylsulfoxide (DMSO) and phosphate buffered saline (PBS, pH 7.4) via intraperitoneal way. • Group II: Mice injected with 15 μg/kg TNF-alpha (dissolved in PBS) with single dose via intraperitoneal way. • Group III: Mice injected with 800 μg/kg Act D (dissolved in DMSO) with single dose via intraperitoneal way. • Group IV: The mice given with TNF-alpha 2 minutes after Act D is administered in doses and mode of administrations above. • Group V: The mice given with 200 μg/kg teduglutide (dissolved in PBS) for 10 days uninterruptedly in every 12 hours via subcutaneous injection. • Group VI: TNF-alpha was injected to mice to which teduglutide was administered for 10 days as mentioned above, 2 minutes after Act D was administered in 11th day in above doses and mode of administration.
(§3) The mice in Group V were cut with cervical dislocation 16.5 hours after the last administration, and the mice in other groups were cut 4.5 hours after the last administration, and the lung samples were taken for microscopic and biochemical analysis.
TUNEL (Terminal deoxynucleotidyl transferase-mediated dUTP-nick end labeling assay) method was used to identify apoptotic cells in the lung. In this method, left lung sections fixed with 10% neutral formalin for 24 hours were used. Lung sections in thickness of 5 μm were treated with proteinase K (20 ug/ml) following rehydratation, and then endogenous peroxidase activity was blocked with 3% H2O2.
Marking step was carried out with commercially available ApopTag Plus Peroxidase kit (Millipore). The reaction in apoptotic cells was developed with […]. Following this process, cell nuclei were made visible in staining with methylene green. Mice breast tissue was used as positive control. […] TUNEL positive cells in the lung were analyzed under light microscope at 400× magnification. The apoptotic index value was calculated as a percentage of apoptotic cells in total number of cells.

active caspase-3 = assay: Active caspase-3 immunoreactivity (labeling index) in alveolar area; assay type: in vivo, mouse; conditions: male BALB/c mice, active caspase-3 immunoreactive cells, teduglutide 200 μg/kg s.c. every 12 hours for 10 days, TNF-alpha 15 μg/kg i.p., Act D 800 μg/kg i.p.
Experimental: as §2, §3
For the identification of apoptosis in the tissue, as another way, active caspase-3 immunoreactivity was tested. For this purpose, streptavidin-biotin-peroxidase immune method was used. Sections of left lung fixed with neutral formalin were treated with 0.3% triton X-100 for 10 minutes after dewaxing and rehydratation. Following this process, they heated in 10 mM citrate buffer (pH 6.0) for 15 min in a microwave oven. The sections were incubated for 10 minutes with 3% H2O2 for blocking of endogenous peroxidase activity. The next steps were performed according to the instructions in Histostain Plus Broad Spectrum Kit (Invitrogen). The sections were incubated with polyclonal rabbit active caspase 3 antibody (1:50 in PBS, Millipore) for 1 hour at room temperature.
Immunoreaction was developed with 3-amino-9-ethylcarbazole. The sections were stained with Mayer's hematoxilin following immunostaining. PBS or nonspecific rabbit IgG primary antibody were used as negative controls.
Quantitative analysis of immunoreactive cells labeled with caspase-3 antibody was made with light microscope at ×400 magnification. For the immunoreactive cell count, 5 randomly selected fields of alveolar areas without bronchioles were examined in the lung sections of each mouse. The labeling index for caspase-3 was calculated as a percentage of immunoreactive cells in the total number of cells counted per section.

type II pneumocytes = assay: Type II pneumocyte count (Pro-SPC immunostaining) in alveolar epithelium; assay type: in vivo, mouse; conditions: male BALB/c mice, Pro-SPC immunoreactive cells in total number of cells, same dosing groups
Experimental: as §1
Strep-ABC immunostaining method was used in order to determine proliferative cells in the alveolar area. […] Furthermore, since it is known that type II pneumocytes give new ones to replace type I and type II pneumocytes which die or lose function in the damaged alveolar epithelium, the number of type II pneumocytes in the alveolar area were analyzed in the experimental groups. […] Proliferation index and number of type II pneumocytes in the alveolar area were calculated as ratio of immunoreactive cells in total number of cells, and the value was expressed as %. […]

GSH (glutathione) = assay: GSH level in lung homogenate (Beutler method); assay type: in vivo, mouse; conditions: lung tissue, male BALB/c mice, Mean ± SD, same dosing groups
lipid peroxidation (LPO) = assay: Lipid peroxidation (LPO) level in lung homogenate; assay type: in vivo, mouse; conditions: lung tissue, male BALB/c mice, Mean ± SD, same dosing groups
catalase (CAT) = assay: Catalase activity in lung tissue; assay type: in vivo, mouse; conditions: male BALB/c mice, Mean ± SD, same dosing groups
[3] = tested on: superoxide dismutase (SOD); assay: Superoxide dismutase activity in lung tissue; assay type: in vivo, mouse; conditions: male BALB/c mice, Mean ± SD, same dosing groups
[4] = tested on: glutathione peroxidase (GPx); assay: Glutathione peroxidase activity in lung tissue; assay type: in vivo, mouse; conditions: male BALB/c mice, Mean ± SD, same dosing groups
myeloperoxidase (MPO) = assay: Myeloperoxidase activity in lung tissue; assay type: in vivo, mouse; conditions: male BALB/c mice, Mean ± SD, same dosing groups
Na^+K^+ATPase = assay: Na+K+ATPase activity in lung tissue; assay type: in vivo, mouse; conditions: male BALB/c mice, Mean ± SD, same dosing groups
xanthine oxidase (XO) = assay: Xanthine oxidase activity in lung tissue; assay type: in vivo, mouse; conditions: male BALB/c mice, Mean ± SD, same dosing groups
tissue factor (TF) = assay: Tissue factor activity in lung tissue (Quick's one-stage method); assay type: in vivo, mouse; conditions: male BALB/c mice, Mean ± SD, Quick's one-stage method using normal plasma, same dosing groups
[5] = tested on: patients having intestinal damage with short bowel syndrome; conditions: cited from earlier work
[6] = tested on: patients with short bowel syndrome; conditions: s.c. 0.05 or 0.10 mg/kg/day; cited from earlier work
[7] = tested on: patients with short bowel syndrome; conditions: 11 patients with short bowel syndrome, s.c. 0.4 mg 3 times a day, 13, 26, 52 weeks; cited from earlier work
[8] = humans, short bowel syndrome, teduglutide s.c. 0.05 or 0.10 mg/kg/day, 52 weeks

| Compound | apoptotic index in alveolar areas in mice [2] | caspase-3 index in alveolar areas in mice (active caspase-3) [%] | GSH (GSH (glutathione)) | LPO (lipid peroxidation (LPO)) | CAT (catalase (CAT)) | SOD [3] | GPx [4] | Na^+K^+ATPase (Na^+K^+ATPase) | TF (tissue factor (TF)) | further results |
| --- | --- | --- | --- | --- | --- | --- | --- | --- | --- | --- |
| CC[C@H](C)[C@H](NC(=O)[C@H](Cc1ccccc1)NC(=O)[C@H](CC(=O)O)NC(=O)[C@H](CCCNC(=N)N)NC(=O)[C@H](C)NC(=O)[C@H](C)NC(=O)[C@H](CC(C)C)NC(=O)[C@H](CC(N)=O)NC(=O)[C@H](CC(=O)O)NC(=O)[C@H](CC(C)C)NC(=O)[C@@H](NC(=O)[C@@H](NC(=O)[C@H](CC(N)=O)NC(=O)[C@H](CCSC)NC(=O)[C@H](CCC(=O)O)NC(=O)[C@H](CC(=O)O)NC(=O)[C@H](CO)NC(=O)[C@H](Cc1ccccc1)NC(=O)[C@H](CO)NC(=O)CNC(=O)[C@H](CC(=O)O)NC(=O)CNC(=O)[C@@H](N)Cc1c[nH]cn1)[C@@H](C)O)[C@@H](C)CC)C(=O)N[C@@H](CC(N)=O)C(=O)N[C@@H](Cc1c[nH]c2ccccc12)C(=O)N[C@@H](CC(C)C)C(=O)N[C@H](C(=O)N[C@@H](CCC(N)=O)C(=O)N[C@H](C(=O)N[C@@H](CCCCN)C(=O)N[C@H](C(=O)N[C@H](C(=O)N[C@@H](CC(=O)O)C(=O)O)[C@@H](C)O)[C@@H](C)CC)[C@@H](C)O)[C@@H](C)CC [Teduglutide] | no significant change in apoptotic index | 0.00±0.00 | 43.67 ± 8.25^c nmol GSH/mg protein | 5.31 ± 1.71^b nmol MDA/mg protein | 44.74 ± 7.52^d U/mg protein | 7.36 ± 1.28^c U/mg protein | 491.56 ± 171.49^b U/g protein | 6.46 ± 1.13^a nmol Pi/mg protein/h | increases the TF activity | structure of alveolar wall / alveolar epithelium under light microscope [1]: alveoli were in better condition; caspase-3 index in alveolar areas in mice (active caspase-3; listed as teduglutide): decreased significantly in individuals previously treated with teduglutide to which TNF-alpha/Act D was administered; type II pneumocytes in alveolar epithelium of mouse lung (type II pneumocytes): 16.65±1.13%; type II pneumocytes in alveolar epithelium of mouse lung (type II pneumocytes; listed as teduglutide): significant decrease in type II pneumocyte number; GSH (GSH (glutathione); listed as teduglutide): increased significantly; MPO (myeloperoxidase (MPO)): 88.93 ± 30.32^g mU/g tissue; XO (xanthine oxidase (XO); listed as Tedoglutide): 17.46 ± 3.16^a U/mg protein; TF (tissue factor (TF); listed as Tedoglutide): 47.28 ± 9.91^d sec; reliability of long term use ([5]; 52 patients, s.c. 0.05 or 0.10 mg/kg/day for 52 weeks): reliable for long term use in humans; adverse effect: abdominal pain [5, 8]: 25%; adverse effect: headache [5, 8]: 35%; adverse effect: nausea [5, 8]: 31%; liver function tests (AST, ALT, ALP) and renal function tests (creatinine, urea, bilirubin, glomerular filtration speed) [6]: improvement in liver function tests |
| TNF-α | 0.41±0.04% | 0.08±0.005 | 10.16 ± 2.66^a nmol GSH/mg protein | 4.51 ± 0.50^b nmol MDA/mg protein | 42.44 ± 5.79^a U/mg protein | 6.99 ± 2.57^f U/mg protein | 453.86 ± 52.35^c U/g protein | 3.96 ± 0.71^a nmol Pi/mg protein/h | 49.08 ± 10.40^d sec | apoptotic index in alveolar areas in mice ([2]; listed as TNF-alpha): no significant change in apoptotic index; GSH (GSH (glutathione); listed as TNF-alpha): increased significantly; LPO (lipid peroxidation (LPO); listed as TNF-alpha): increased significantly; MPO (myeloperoxidase (MPO); listed as TKF-α): 193.80 ± 31.28^c mU/g tissue; MPO (myeloperoxidase (MPO); listed as TNF-alpha): increased significantly; XO (xanthine oxidase (XO)): 21.53 ± 3.28^a U/mg protein; XO (xanthine oxidase (XO); listed as TNF-alpha): increased significantly |
| human GLP-2: Human glucagon like peptide 2, 33 amino acid sequence (SEQUENCE ID No. 1) (HADGSFSDEMNTILDNLAARDFINWLIQTKIT; listed as Homo sapiens) | – | – | – | – | – | – | – | – | – | intestinal morphology, absorption, renal functions, bone mineral density and muscle functions [7]: does not change |
| Cc1c2oc3c(C)ccc(C(=O)N[C@@H]4C(=O)N[C@H](C(C)C)C(=O)N5CCC[C@H]5C(=O)N(C)CC(=O)N(C)[C@@H](C(C)C)C(=O)O[C@@H]4C)c3nc-2c(C(=O)N[C@@H]2C(=O)N[C@H](C(C)C)C(=O)N3CCC[C@H]3C(=O)N(C)CC(=O)N(C)[C@@H](C(C)C)C(=O)O[C@@H]2C)c(N)c1=O [Act D, Actinomycin D] (I: T[dV]P[Sar][NMeV] / II: T[dV]P[Sar][NMeV]; ester I:1-I:C, II:1-II:C; linker I:N-II:N via Actinocin(9to1)) | – | 0.02±0.005 | – | – | 29.76 ± 4.34^b U/mg protein | 8.21 ± 2.29^g U/mg protein | 473.28 ± 78.26^c U/g protein | 3.63 ± 1.13^a nmol Pi/mg protein/h | 50.50 ± 8.06^d sec | – |
